According to patent US20150291598A1 (NOVARTIS AG, priority 2012, published 2015):

tested on: P. falciparum (NF54 or 3D7 strain); assay: Assay for P. falciparum proliferation in infected human blood cells (SYBR Green); assay type: cell-based, Plasmodium falciparum; conditions: Plasmodium falciparum, Erythrocyte, 72 h, NF54 or 3D7 infected human erythrocytes, 72 hours; read-out: EC50 (nM), inhibitory efficacy in delaying P. falciparum proliferation in infected human blood cells
Experimental: Assay for P. falciparum Proliferation in Infected Human Blood Cells
Compounds of the invention can be assayed to measure their capacity to inhibit proliferation of P. falciparum parasitemia in infected red blood cells. This parasite proliferation assay measures the increase in parasite DNA content using a DNA intercalating dye, SYBR Green® (INVITROGEN®) which has a high affinity for double stranded DNA.
NF54 or 3D7 P. falciparum strain is grown in complete culturing media until parasitemia reaches 3% to 8% with O+ human erythrocytes. […] 20 μl of screening media is dispensed into 384 well assay plates. 50 nl of compounds of the invention (in DMSO), including antimalarial controls (mefloquine, pyrimethamine and artemisinin), are then transferred into the assay plates, as well as DMSO alone to serve as a negative control for inhibition. Then 30 μl of a suspension of a NF54 or 3D7 P. falciparum infected erythrocytes in screening media is dispensed into the assay plates such that the final hematocrit is 2.5% with a final parasitemia of 0.3%. The plates are placed in a 37° C. incubator for 72 hours in a low oxygen environment containing 93% N2, 4% CO2, and 3% O2 gas mixture. 10 μl of lysis buffer (saponin, triton-X, EDTA) containing a 10× solution of SYBR Green I® in RPMI media is dispensed into the plates. The plates are lidded and kept at room temperature overnight for the lysis of the infected red blood cells. The fluorescence intensity is measured (excitation […], emission 530 nm) using the Envision™ system (Perkin Elmer).

Structure (SMILES) | EC50
CN(C)c1ccc(-c2cnc3cnc(CN(C)c4ccc(F)cc4)cn23)cc1 [Compound 36, 4-(6-{[(4-fluorophenyl)(methyl)amino]methyl}imidazo[1,2-a]pyrazin-3-yl)-N,N-dimethylaniline] | 329 nM
CN(C(=O)c1cn2c(-c3ccc(OC(F)F)cc3)cnc2cn1)c1ccc(C#N)cc1 [Compound 214, N-(4-cyanophenyl)-3-[4-(difluoromethoxy)phenyl]-N-methylimidazo[1,2-a]pyrazine-6-carboxamide] | 31 nM
CN(C(=O)c1cn2c(-c3ccnc(Cl)c3)cnc2cn1)c1ccc(C#N)cc1 [Compound 27, 3-(2-chloropyridin-4-yl)-N-(4-cyanophenyl)-N-methylimidazo[1,2-a]pyrazine-6-carboxamide] | > 10000 nM
CN(C(=O)c1cn2c(-c3ccc(-n4cccn4)cc3)cnc2cn1)c1ccc(C#N)cc1 [Compound 87, N-(4-cyanophenyl)-N-methyl-3-[4-(1H-pyrazol-1-yl)phenyl]imidazo[1,2-a]pyrazine-6-carboxamide] | 104 nM
CN(C(=O)c1cn2c(-c3ccc(-c4nnc(N)s4)cc3)cnc2cn1)c1ccc(C#N)cc1 [Compound 74, 3-[4-(5-amino-1,3,4-thiadiazol-2-yl)phenyl]-N-(4-cyanophenyl)-N-methylimidazo[1,2-a]pyrazine-6-carboxamide] | 24 nM
Cc1ccc(N(C)Cc2cn3c(-c4ccc5c(cnn5C)c4)cnc3cn2)nc1 [Compound 45, N,5-dimethyl-N-{[3-(1-methyl-1H-indazol-5-yl)imidazo[1,2-a]pyrazin-6-yl]methyl}pyridin-2-amine] | 178 nM
CN(C(=O)c1cn2c(-c3ccc4cn[nH]c4c3)cnc2cn1)c1ccc(C#N)cc1 [Compound 154, N-(4-cyanophenyl)-3-(1H-indazol-6-yl)-N-methylimidazo[1,2-a]pyrazine-6-carboxamide] | 2690 nM
CN(C(=O)c1cn2c(-c3ccc(-c4ccnn4C)cc3)cnc2cn1)c1ccc(C#N)cc1 [Compound 208, N-(4-cyanophenyl)-N-methyl-3-[4-(1-methyl-1H-pyrazol-5-yl)phenyl]imidazo[1,2-a]pyrazine-6-carboxamide] | 724 nM
CNc1nnc(-c2ccc(-c3cnc4cnc(C(=O)N(C)c5ccc(C#N)cc5)cn34)cc2)s1 [Compound 476, N-(4-cyanophenyl)-N-methyl-3-{4-[5-(methylamino)-1,3,4-thiadiazol-2-yl]phenyl}imidazo[1,2-a]pyrazine-6-carboxamide] | 9 nM
CON(C)C(=O)c1ccc(-c2cnc3cnc(C(=O)N(C)c4ccc(C#N)cc4)cn23)cc1 [Compound 185, N-(4-cyanophenyl)-3-{4-[methoxy(methyl)carbamoyl]phenyl}-N-methylimidazo[1,2-a]pyrazine-6-carboxamide] | 7170 nM
CN(Cc1cn2c(-c3ccc(Cl)cc3)cnc2cn1)c1ccc(C#N)cc1 [Compound 4, 4-(((3-(4-chlorophenyl)imidazo[1,2-a]pyrazin-6-yl)methyl)(methyl)amino)benzonitrile] | 185 nM
CN(C(=O)c1cn2c(-c3cccc(-c4cn[nH]c4)c3)cnc2cn1)c1ccc(C#N)cc1 [Compound 46, N-(4-cyanophenyl)-N-methyl-3-[3-(1H-pyrazol-4-yl)phenyl]imidazo[1,2-a]pyrazine-6-carboxamide] | > 10000 nM
CN(C(=O)c1cn2c(-c3ccc4occc4c3)cnc2cn1)c1ccc(Cl)nc1 [Compound 325, 3-(1-benzofuran-5-yl)-N-(6-chloropyridin-3-yl)-N-methylimidazo[1,2-a]pyrazine-6-carboxamide] | 4140 nM
CN(C(=O)c1cn2c(-c3ccc(S(=O)(=O)N(C)C)cc3)cnc2cn1)c1ccc(C#N)cc1 [Compound 197, N-(4-cyanophenyl)-3-[4-(dimethylsulfamoyl)phenyl]-N-methylimidazo[1,2-a]pyrazine-6-carboxamide] | > 10000 nM
CN(C(=O)c1cn2c(-c3ccc(OC(F)F)cc3)cnc2cn1)c1ccc(Cl)nc1 [Compound 429, N-(6-chloropyridin-3-yl)-3-[4-(difluoromethoxy)phenyl]-N-methylimidazo[1,2-a]pyrazine-6-carboxamide] | 313 nM
COc1ccc(-c2ccc(N(C)C(=O)c3cn4c(-c5ccc(OC)cc5C)cnc4cn3)cn2)c(C)c1 [Compound 302, 3-(4-methoxy-2-methylphenyl)-N-[6-(4-methoxy-2-methylphenyl)pyridin-3-yl]-N-methylimidazo[1,2-a]pyrazine-6-carboxamide] | 1850 nM

Continued, values first:

EC50 | Structure (SMILES)
2060 nM | CN(C(=O)c1cn2c(-c3ccc(F)cc3)cnc2cn1)c1ccc(C#N)cc1 [Compound 153, N-(4-cyanophenyl)-3-(4-fluorophenyl)-N-methylimidazo[1,2-a]pyrazine-6-carboxamide]
382 nM | CN(C(=O)c1cn2c(-c3ccc(Cl)cc3)cnc2cn1)c1ccc(Cl)nc1 [Compound 81, -(4-chlorophenyl)-N-(6-chloropyridin-3-yl)-N-methylimidazo[1,2-a]pyrazine-6-carboxamide]
1740 nM | COc1ccc(N(C)C(=O)c2cn3c(-c4ccc(C(F)(F)F)cc4)cnc3cn2)cn1 [Compound 88, N-(6-methoxypyridin-3-yl)-N-methyl-3-[4-(trifluoromethyl)phenyl]imidazo[1,2-a]pyrazine-6-carboxamide]
> 10000 nM | CN(C(=O)c1ccc(C(C)(C)C)cc1)c1cn2c(-c3ccc(C(F)(F)F)cc3)cnc2cn1 [Compound 417, 4-tert-butyl-N-methyl-N-{3-[4-(trifluoromethyl)phenyl]imidazo[1,2-a]pyrazin-6-yl}benzamide]
353 nM | CN(C(=O)c1cn2c(-c3ccc(C(F)(F)F)cc3)cnc2cn1)c1ccc(C(F)(F)F)cc1 [Compound 500, N-methyl-N,3-bis[4-(trifluoromethyl)phenyl]imidazo[1,2-a]pyrazine-6-carboxamide]
125 nM | CN(C(=O)c1cn2c(-c3ccc(C(F)(F)F)cc3)cnc2cn1)c1ccc(C#N)c(F)c1 [Compound 126, N-(4-cyano-3-fluorophenyl)-N-methyl-3-[4-(trifluoromethyl)phenyl]imidazo[1,2-a]pyrazine-6-carboxamide]
21 nM | CC1(C)CCc2cc(F)ccc2N1C(=O)c1cn2c(-c3ccc(C(F)(F)F)cc3)cnc2cn1 [Compound 230, 6-fluoro-2,2-dimethyl-1-({3-[4-(trifluoromethyl)phenyl]imidazo[1,2-a]pyrazin-6-yl}carbonyl)-1,2,3,4-tetrahydroquinoline]
82 nM | COc1ccc(-c2cnc3cnc(C(=O)N(C)c4ccc(F)c(F)c4)cn23)cc1 [Compound 431, N-(3,4-difluorophenyl)-3-(4-methoxyphenyl)-N-methylimidazo[1,2-a]pyrazine-6-carboxamide]
491 nM | Cc1cc(N(C)C(=O)c2cn3c(-c4ccc(C(F)(F)F)cc4)cnc3cn2)ccc1Cl [Compound 56, N-(4-chloro-3-methylphenyl)-N-methyl-3-[4-(trifluoromethyl)phenyl]imidazo[1,2-a]pyrazine-6-carboxamide]
> 5980 nM | CN(C(=O)c1cn2c(C(=O)Nc3ccc(C(F)(F)F)cc3)cnc2cn1)c1ccc(Cl)nc1 [Compound 403, 6-N-(6-chloropyridin-3-yl)-6-N-methyl-3-N-[4-(trifluoromethyl)phenyl]imidazo[1,2-a]pyrazine-3,6-dicarboxamide]
1080 nM | CCc1ccc(N(C)C(=O)c2cn3c(-c4ccc(C(F)(F)F)cc4)cnc3cn2)nc1 [Compound 39, N-(5-ethylpyridin-2-yl)-N-methyl-3-[4-(trifluoromethyl)phenyl]imidazo[1,2-a]pyrazine-6-carboxamide]
1170 nM | COc1ccnc(N(C)C(=O)c2cn3c(-c4ccc(C(F)(F)F)cc4)cnc3cn2)c1 [Compound 358, -(4-methoxypyridin-2-yl)-N-methyl-3-[4-(trifluoromethyl)phenyl]imidazo[1,2-a]pyrazine-6-carboxamide]
99 nM | CN(C(=O)c1cn2c(-c3ccc(C(F)(F)F)cc3)cnc2cn1)c1ccc(F)cc1F [Compound 23, N-(2,4-difluorophenyl)-N-methyl-3-[4-(trifluoromethyl)phenyl]imidazo[1,2-a]pyrazine-6-carboxamide]
635 nM | CN(C(=O)c1cn2c(-c3ccc(C(F)(F)F)cc3)cnc2cn1)c1ccncc1 [Compound 249, N-methyl-N-(pyridin-4-yl)-3-[4-(trifluoromethyl)phenyl]imidazo[1,2-a]pyrazine-6-carboxamide]
1280 nM | COc1ccncc1N(C)C(=O)c1cn2c(-c3ccc(C(F)(F)F)cc3)cnc2cn1 [Compound 303, N-(4-methoxypyridin-3-yl)-N-methyl-3-[4-(trifluoromethyl)phenyl]imidazo[1,2-a]pyrazine-6-carboxamide]
972 nM | Cc1ccc(N(C)Cc2cn3c(-c4ccc(C(F)(F)F)cc4)cnc3cn2)nc1 [Compound 287, N,5-dimethyl-N-({3-[4-(trifluoromethyl)phenyl]imidazo[1,2-a]pyrazin-6-yl}methyl)pyridin-2-amine]
3310 nM | Cc1cnc(N(C)C(=O)c2cn3c(-c4ccc(C(F)(F)F)cc4)cnc3cn2)cn1 [Compound 327, N-methyl-N-(5-methylpyrazin-2-yl)-3-[4-(trifluoromethyl)phenyl]imidazo[1,2-a]pyrazine-6-carboxamide]
